{
  "source": "patent US20090226427A1",
  "about": "“NOVEL PHARMACEUTICAL COMPOSITIONS FOR MODULATING ANGIOGENESIS” (priority 1999, published 2009)",
  "molecules": {"B1": {"name": "recombinant (HA-tagged-) caveolin: recombinant caveolin-1 tagged with hemagglutinin antigen, expressed from the injected plasmid (protein, UniProt Q03135 2-178, looked up)", "Caveolin-1": "SGGKYVDSEGHLYTVPIREQGNIYKPNNKAMADELSEKQVYDAHTKEIDLVNRDPKHLNDDVVKIDFEDVIAEPEGTHSFDGIWKASFTTFTVTKYWFYRLLSALFGIPMALIWGIYFAILSFLHIWAVVPCIKSFLIEIQCISRVYSIYVHTVCDPLFEAVGKIFSNVRINLQKEI", "modifications": "HA tag", "notes": "recombinant caveolin-1 tagged with hemagglutinin antigen, expressed from the injected plasmid"}},
  "key": {"endothelial cells": {"tested_on": "endothelial cells", "experiment": "sandwich Matrigel model of endothelial tube formation", "assay_type": "cell-based", "conditions": "non-transfected cells", "description": "Indeed, while endothelial cells culture leads to pavimentous organization when plated on dishes (FIG. 1A), endothelial cells progressively form tubes when cultured within gels of collagen, fibrin or Matrigel®. Accordingly, in the “3-D model”, endothelial cells are mixed to the matrix before gelification and tube-like structures are obtained after 48-72 hours (FIG. 1B); this model, however, reduces the efficiency of transfection. In the “sandwich model”, cells are first cultured to confluence on a first layer of matrix, and are then covered by a second matrix layer; cells are easily transfected in the interval preceding the addition of the upper layer. The latter technique allows the formation of endothelial tubes in 3-6 hours; the tube structures are mature 12 hours after induction (FIG. 1C) and then start to regress.\nOf note, when endothelial cells were transfected with an irrelevant construct (β-galactosidase-encoding), no change in the rate and extent of tube formation was observed."}, "CMECs": {"tested_on": "CMECs", "experiment": "angiogenesis assay on Matrigel, CMECs", "assay_type": "cell-based, Mouse", "description": "(§1) Tube formation was observed using an inverted phase-contrast microscope (Zeiss Axiovert 25), and images were captured with a videographic system (Pixera Pro). The tube formation index was determined by measuring the length of tubes in random fields from each well using the Image J program. Statistical analyses were made using the Student t test or one-way ANOVA where appropriate."}, "AoECs": {"tested_on": "AoECs", "experiment": "aortic ring culture in Matrigel, AoEC network organization", "assay_type": "cell-based, rat", "description": "as §1, with “Cultures of AoECs and CoMECs organized in a network were then challenged at day 5 by incubation under serum-free conditions for 24 to 48 hours with or without some of the drugs mentioned above. […] Tube” for “Tube”"}, "HUVECs": {"tested_on": "HUVECs", "experiment": "angiogenesis assay on Matrigel, HUVECs", "assay_type": "cell-based, human", "conditions": "HUVECs; 0.1 μmol/L", "description": "as §1\nTransfection and peptide loading was performed by reversible permeabilization: HUVECs were transfected with the hsp90 cDNA (a gift from Dr W. C. Sessa, Yale University, New Haven, Conn.) using Lipofectamine (Invitrogen) according to the manufacturer's protocol; an irrelevant plasmid encoding β-galactosidase was used as a control to obtain identical amounts of transfected DNA in each condition. HUVECs were also reversibly permeabilized, as previously reported (Feron et al. J Biol. Chem. 1998; 273:30249-30254), to introduce synthetic peptides derived from the caveolin scaffolding domain (CSD)."}, "[1]": {"tested_on": "caveolin/eNOS interaction", "experiment": "caveolin/eNOS co-immunoprecipitation, AoECs", "assay_type": "cell-based, rat"}, "caveolin [2]": {"tested_on": "caveolin", "experiment": "caveolin immunoblot, CMECs", "assay_type": "cell-based, Mouse", "conditions": "3-hour exposure of CMECs", "source_text": "(§2) Therefore, the effects of statin exposure on the absolute amounts of caveolin in AoECs and CMECs was examined."}, "caveolin [3]": {"tested_on": "caveolin", "experiment": "caveolin immunoblot, AoECs", "assay_type": "cell-based, rat", "conditions": "n=3, P<0.01", "source_text": "as §2"}, "caveolin [4]": {"tested_on": "caveolin", "experiment": "caveolin immunoblot, AECs", "assay_type": "cell-based, Bovine", "conditions": "isolated aortic ECs after statin treatment", "source_text": "as §2"}, "caveolin [5]": {"tested_on": "caveolin", "experiment": "caveolin immunoblot, CoMECs", "assay_type": "cell-based, human", "conditions": "microvascular outgrowing CoMECs", "source_text": "as §2"}, "phospho-Ser1177-eNOS [6]": {"tested_on": "phospho-Ser1177-eNOS", "experiment": "phospho-Ser1177 eNOS immunoblot, CMECs", "assay_type": "cell-based, Mouse"}, "phospho-eNOS": {"tested_on": "phospho-eNOS", "experiment": "phospho-eNOS immunoblot and hsp90/eNOS interaction, AoECs", "assay_type": "cell-based, rat"}, "Akt/hsp90 interaction": {"tested_on": "Akt/hsp90 interaction", "experiment": "Akt/hsp90 co-immunoprecipitation, statin-exposed HUVECs", "assay_type": "cell-based, human", "conditions": "5-minute exposure"}, "hsp90": {"tested_on": "hsp90", "experiment": "hsp90 tyrosine phosphorylation, HUVECs", "assay_type": "cell-based, human"}, "[7]": {"tested_on": "caveolin/eNOS interaction", "conditions": "CMECs; P>0.1, n=3"}, "phospho-Ser473-Akt": {"tested_on": "phospho-Ser473-Akt", "experiment": "phospho-Ser473-Akt immunoblot, statin-exposed HUVECs", "conditions": "5-minute incubation"}, "phospho-Ser1177-eNOS [8]": {"tested_on": "phospho-Ser1177-eNOS", "experiment": "phospho-Ser1177-eNOS immunoblot, statin-exposed HUVECs"}, "eNOS/hsp90 interaction": {"tested_on": "eNOS/hsp90 interaction", "experiment": "eNOS/hsp90 co-immunoprecipitation, statin-exposed HUVECs", "conditions": "5-minute exposure"}, "[9]": {"tested_on": "phospho-Akt/eNOS interaction", "experiment": "eNOS/phospho-Akt co-immunoprecipitation, statin-exposed HUVECs"}, "[10]": {"tested_on": "TLT cells (hepatocarcioma)", "experiment": "TLT tumor mouse model, tumor volume", "assay_type": "in vivo, mice", "conditions": "immunological detection of HA tag in tumor endothelial cells", "source_text": "Hepatocarcinoma cells are able to grow as a tumor after injection in the leg of mice is dependent on the ability of endothelial cells to develop new vessels to “feed” the tumor. This vessel development depends on the capacity of endothelial cells to produce NO through eNOS activation in these cells, itself regulated by the post-translational modulators it was previously identified in the in vitro experiments, e.g. caveolin-1.\nTumor mouse model: 30-40 g male NMRI mice received an IP injection of TLT cells (hepatocarcioma). Ascite cells were recovered in physiological serum and IM-injected in the posterior left leg of ketamine/xylazin anesthetized mice. Tumors grew for 9-12 days to reach 8±1 mm of diameter, the original diameter for treatment (caveolin plasmid injection) at day 0.\nThe effect of injection of plasmids encoding caveolin-1 has been evaluated on the volume of the growing tumor after tumor implantation in the leg (FIG. 2). Caveolin-encoding plasmids were injected either intravenously or directly in the tumor. The working hypothesis was that heterologous over-expression of caveolin-1 in endothelial cells will inhibit eNOS activation in endothelial cells, with a subsequent inhibition of angiogenesis that will result in a decrease in tumor growth."}},
  "data": [
    {"molecule": "CC(C)c1c(C(=O)Nc2ccccc2)c(-c2ccccc2)c(-c2ccc(F)cc2)n1CC[C@@H](O)C[C@@H](O)CC(=O)O", "note": "[atorvastatin]", "values": [
      {"measurement": "endothelial tube formation", "setting": "endothelial cells", "value": "accelerated the endothelial tube formation"},
      {"measurement": "time of maximal proangiogenic effect", "setting": "CMECs; CMECs on Matrigel", "value": 3, "unit": "h"},
      {"measurement": "formation of capillary-like structures on Matrigel", "setting": "CMECs; freshly isolated CMECs, atorvastatin 1 _mol/L", "value": "rapidly led to the formation of capillary-like structures"},
      {"measurement": "serum-driven formation of the AoEC network", "setting": "AoECs; atorvastatin present during 5 to 7 days of cell growth", "value": "did not significantly influence"},
      {"measurement": "network organization after serum deprivation", "setting": "AoECs; statin pretreatment, then deprived of serum for 48 hours", "value": "dramatically stabilized the network organization"},
      {"measurement": "tube formation", "setting": "HUVECs", "value": "stimulated tube formation"},
      {"measurement": "eNOS found in the caveolin immunoprecipitate", "setting": "[1]; AoECs exposed to atorvastatin for 5 days, n=6, 44+/−8% without statin", "value": "8+/−5%"},
      {"measurement": "change in amount of caveolin immunoprecipitated by eNOS antibodies", "setting": "[1]; atorvastatin-treated AoECs, P<0.01, n=3", "value": "−73+/−7%"},
      {"measurement": "abundance of caveolin", "setting": "caveolin [2]", "value": "did not alter"},
      {"measurement": "reduction of the AoEC pool of caveolin", "setting": "caveolin [3]", "value": "26+/−5%"},
      {"measurement": "caveolin abundance", "setting": "caveolin [4]", "value": "significant decrease in caveolin abundance"},
      {"measurement": "caveolin expression", "setting": "caveolin [5]", "value": "did not any alteration in caveolin expression"},
      {"measurement": "eNOS phosphorylation (Ser1177)", "setting": "phospho-Ser1177-eNOS [6]", "value": "did produce eNOS phosphorylation"},
      {"measurement": "phosphorylation of eNOS", "setting": "phospho-eNOS; AoECs, 5-day treatment then 48-hour period in the absence of atorvastatin", "value": "no effect"},
      {"measurement": "amounts of phospho-eNOS and hsp90/eNOS interaction", "setting": "phospho-eNOS; uninterrupted exposure of outgrowing AoECs (or isolated AECs)", "value": "significant increase"},
      {"measurement": "interaction of hsp90 with Akt", "setting": "Akt/hsp90 interaction", "value": "sufficient to promote the interaction of hsp90 with both Akt and eNOS"},
      {"measurement": "tyrosine phosphorylation of hsp90", "setting": "hsp90", "value": "rapidly and dose-dependently induced"},
      {"measurement": "amount of caveolin immunoprecipitated by eNOS antibodies", "setting": "[7]", "value": "not significantly altered"},
      {"measurement": "Akt phosphorylation", "setting": "phospho-Ser473-Akt", "value": "sufficient to induce Akt phosphorylation"},
      {"measurement": "eNOS phosphorylation", "setting": "phospho-Ser1177-eNOS [8]; 5-minute incubation", "value": "did not promote eNOS phosphorylation"},
      {"measurement": "eNOS phosphorylation", "setting": "phospho-Ser1177-eNOS [8]; 30 minutes exposure", "value": "produced eNOS phosphorylation"},
      {"measurement": "interaction of hsp90 with eNOS", "setting": "eNOS/hsp90 interaction", "value": "sufficient to promote the interaction of hsp90 with both Akt and eNOS"},
      {"measurement": "time to maximum of the Akt-hsp90-eNOS mutual interaction", "setting": "[9]", "value": "1 to 2", "unit": "h"},
      {"measurement": "association of Akt with eNOS", "setting": "[9]; 5-minute exposure", "value": "insufficient to promote the association of Akt with eNOS"}
    ]},
    {"molecule": "B1", "values": [
      {"measurement": "extent of recombinant caveolin expression in relation to tumor volume", "setting": "[10]", "value": "inversely correlated to the tumor volume"}
    ]}
  ]
}
